Assay results: patent US20080076750A1, “Azetidinone Derivatives and Methods of Use Thereof” (priority 2006, published 2008)
Like-named read-outs stand apart in the source and are kept apart here.

Legend:
human Cav3.2 = target: T1, human Cav3.2 (Homo sapiens, UniProt O95180); assay: IonWorks Screen for hCaV3.2; type: cell-based; conditions: IonWorks HT, HEK cells expressing human Cav3.2, 10 minutes incubation, pulse 10; read-out: IW hCav3.2 IC50
T1 construct: expressed in transfected cells
From the text: Functional evaluation of voltage-gated ion channels can be used to determine potency and/or single concentration efficacy of the Azetidinone Derivatives. Two different methodologies can be used to measure ion currents: the Ionworks HT (Molecular Devices, Sunnyvale, Calif.) a moderate throughput voltage clamp screening platform that utilizes 96-well compound plates and conventional whole cell patch clamp for lower throughput, higher fidelity determinations.
HEK cells are transiently transfected and then selected for stable heterologous expression of different channel proteins of interest. Calcium channel cell lines expressed a resting potassium current, human Kir2.1, and the pore forming α-subunit of voltage-gated calcium channels. In the case of Cav2.1 cells the auxiliary subunit, β2α, is also expressed. Calcium channel lines that are used to generate the data will express either human Cav3.2, rat Cav3.2 or human Cav2.1. The human heart sodium channel, hNav1.5, are stably expressed in CHO cells.
Cell lines can be grown at 37° C. in humidified incubators, equilibrated with 95% air/5% CO2. CHO cells can be grown in Ham's F-12 medium. HEK cells can be grown in DMEM. All media are supplemented with 10% heat-inactivated fetal bovine serum, penicillin, streptomycin and appropriate selection antibiotics (zeocin, geneticin and/or hygromycin). Cells are passaged when 80% confluent or less.
IonWorks Screen for hCaV3.2
The extracellular buffer for experiments using this instrument contained the following (mM) (NaCl 125, HEPES 10, KCl 5.4, CaCl2 1.8, MgCl2 1.8, 0.2 BaCl2 pH 7.35). The IonWorks uses amphotericin to gain electrical access to the cell interior. The internal solution contained (mM concentrations): 130 K-gluconate, 20 KCl, 5 HEPES-KOH (pH 7.25), 2 CaCl2, 1 MgCl2. Amphotericin added at 5 mg in 65 mL when present (in 650 μL DMSO). All internal and external solutions for this experiment contain 1% DMSO. Cells were acutely trypsinized from a T-75 flask and resuspended in extracellular buffer at a density of 2×10^5 cells/mL.
Experiments were performed at room temperature. Transmembrane potential was held at −100 mV for 5 seconds prior to running the voltage protocol. During this time leak currents were measured during a step to −110 mV (200 milliseconds), T-type calcium currents were activated with a 250 millisecond step to −20 mV. This depolarization step was repeated for a total of 10 pulses with an interpulse interval of 1 second. Data were excluded if the following acceptance criteria were not met: total resistance for the pre-compound scan>65 MΩ, pre-compound current>250 pA, post compound total resistance>50 MΩ.
T-type currents were measured as the peak inward current minus the current at the end of the 250 msec step to −20 mV. After the recoding configuration was established there was a pre-compound measurement of current amplitude. Compound was added as a 3× solution containing 1% DMSO. After incubation with compound for 10 minutes currents were measured again. The current amplitude after compound addition was divided by the pre-compound current for pulse 10 to determine the fraction of current remaining after compound addition. For each compound, 8-point concentration-effect relationships were measured with ½ log serial dilutions.

TRPV1 [1] = target: T2, TRPV1 (Homo sapiens, UniProt Q8NER1); assay: TRPV1 Screening Assay (FLIPR); type: cell-based; conditions: HEK293-TetOFF-TRPV1, capsaicin (50 nM final), read-out: VR1 flipr CAPSAICIN IC50
T2 construct: expressed in transfected cells; host or cells: HEK293-Tet-OFF
From the text: • 1) Cell line: HEK293-Tet^OFF-TRPV1 • 2) Media: MEM (Invitrogen) • 3) 10% Tet-FBS (Clontech #8630-1) • 4) Fungizone (Gibco #15290-018 (100×)) • 5) Penn/Strep (Gibco #15140-122 (100×)) • 6) Geneticin (Gibco #10131-027 (100×)) • 7) Hygromycin (Clontech #8057-1) • 8) Doxycycline (Clontech #8634-1) • 9) Trypsin/EDTA (Gibco #25200-056) • 10) 100 mm cell culture plates (Falcon #3003) • 11) 96-well poly-D-lysine plates (Fisher #08-774-256) • 12) Hank's Balanced Salt Solution (HBSS) (GIBCO #14025-092) • 13) HEPES Buffer (GIBCO #15630-080) • 14) 30% BSA (Research Organics #1334A) • 15) Probenecid (Sigma P-8761) • 16) Fluo-4, AM (50 μg) (Molecular robes F-23917) • 17) Pluronic F-127 20% (Molecular Probes P-3000). • 18) capsazepine (Sigma C-191) • 19) capsaicin (Sigma M-2028) • 20) compound plates (NUNC #442587) • 21) black pipet tips 96-well FLIPR (Robbins Scientific 1043-24-0) • 22) Additional reagents available from Fisher: methanol, DMSO, NaOH Reagent Preparation: 1) Cells: HEK293-Tet^OFF-TRPV11
• and Doxycycline 2.5 μg/mL final (from a 1000× stock in PBS) • Cells must be fed and/or split every 2-3 days (to maintain transcriptional repression with Doxycycline). • Must be split no more than 1:5 (50-75% confluency) to maintain growth and viability. • Grown on regular tissue culture plates (e.g. Falcon 3003-100 mm) • SpliT-cells via Trypsin/EDTA: incubate with trypsin at room temperature no longer than 5 min (HEK293 cells have a tendency to ball up if over trypsinized). • Two days prior to assay, the cells are split into 96-well plates in cell media in the absence of doxycycline at a concentration of 40,000 cells/well in a volume of 200 μL, 2) FLIPR buffer is prepared fresh:
Add 5 mL of Probenecid Solution, prepared as follows: 710 mg of probenecid (Sigma P-8761) is solubilized in 5 mL of 1 N NaOH, 5 mL of above buffer s added for final volume of 10 mL (of which 5 mL goes back into FLIPR buffer)
Combine 42 μL of dye mixture with 11 mL of FLIPR buffer/96-well plate.
Stock solution of 0.1 M capsaicin is prepared in MeOH (50 mg+1.6 mL MeOH). Store 50 μL aliquots at −80° C.
For assay: • a) Dilute stock by adding 0.8 μL into 1 mL of MeOH (final=80 μM). • b) Add 50 μL of diluted stock to 20 mL of FLIPR buffer (final=0.2 μM) • c) Agonist solution is added 150 μL/well to 96-well plate. • d) Final agonist concentration on cells will be 50 nM. […] Laser is adjusted upwards for an average signal≧10,000/well and less than 10% variability. 7) Compound addition conditions are as follows: • FLIPR setup (dual sequence parameters): • Sequence 1: • First interval 1 sec/60 counts • Second interval 6 sec/50 counts • Fluid addition=50 μL • Pipettor=110 μL • Dispense Speed=30 μL/sec • Sequence 2: • Second interval 1 sec/60 counts • Second interval 6 sec/40 counts • Fluid addition=50 μL • Pipettor height=140 μL • Dispense Speed=50 μL/sec Data Analysis:
1) Data from both additions is reported as Max-Min for each well

TRPV1 [2] = target: T2, TRPV1; assay: TRPV1 Screening Assay (FLIPR); type: cell-based; conditions: HEK293-TetOFF-TRPV1, PMA, read-out: VR1 flipr PMA IC50
human NPC1L1 = target: T3, human NPC1L1 (Homo sapiens, UniProt Q9UHC9); assay: NPC1L1 Binding Assay, human; conditions: HEK-293 cells expressing human NPC1L1; competition with 250 nM BODIPY-labeled glucuronidated ezetimibe, 4 h at 37° C.
T3 construct: expressed in transfected cells; host or cells: HEK-293 (geneticin selection)
T3 sequence (Q9UHC9 22-1359): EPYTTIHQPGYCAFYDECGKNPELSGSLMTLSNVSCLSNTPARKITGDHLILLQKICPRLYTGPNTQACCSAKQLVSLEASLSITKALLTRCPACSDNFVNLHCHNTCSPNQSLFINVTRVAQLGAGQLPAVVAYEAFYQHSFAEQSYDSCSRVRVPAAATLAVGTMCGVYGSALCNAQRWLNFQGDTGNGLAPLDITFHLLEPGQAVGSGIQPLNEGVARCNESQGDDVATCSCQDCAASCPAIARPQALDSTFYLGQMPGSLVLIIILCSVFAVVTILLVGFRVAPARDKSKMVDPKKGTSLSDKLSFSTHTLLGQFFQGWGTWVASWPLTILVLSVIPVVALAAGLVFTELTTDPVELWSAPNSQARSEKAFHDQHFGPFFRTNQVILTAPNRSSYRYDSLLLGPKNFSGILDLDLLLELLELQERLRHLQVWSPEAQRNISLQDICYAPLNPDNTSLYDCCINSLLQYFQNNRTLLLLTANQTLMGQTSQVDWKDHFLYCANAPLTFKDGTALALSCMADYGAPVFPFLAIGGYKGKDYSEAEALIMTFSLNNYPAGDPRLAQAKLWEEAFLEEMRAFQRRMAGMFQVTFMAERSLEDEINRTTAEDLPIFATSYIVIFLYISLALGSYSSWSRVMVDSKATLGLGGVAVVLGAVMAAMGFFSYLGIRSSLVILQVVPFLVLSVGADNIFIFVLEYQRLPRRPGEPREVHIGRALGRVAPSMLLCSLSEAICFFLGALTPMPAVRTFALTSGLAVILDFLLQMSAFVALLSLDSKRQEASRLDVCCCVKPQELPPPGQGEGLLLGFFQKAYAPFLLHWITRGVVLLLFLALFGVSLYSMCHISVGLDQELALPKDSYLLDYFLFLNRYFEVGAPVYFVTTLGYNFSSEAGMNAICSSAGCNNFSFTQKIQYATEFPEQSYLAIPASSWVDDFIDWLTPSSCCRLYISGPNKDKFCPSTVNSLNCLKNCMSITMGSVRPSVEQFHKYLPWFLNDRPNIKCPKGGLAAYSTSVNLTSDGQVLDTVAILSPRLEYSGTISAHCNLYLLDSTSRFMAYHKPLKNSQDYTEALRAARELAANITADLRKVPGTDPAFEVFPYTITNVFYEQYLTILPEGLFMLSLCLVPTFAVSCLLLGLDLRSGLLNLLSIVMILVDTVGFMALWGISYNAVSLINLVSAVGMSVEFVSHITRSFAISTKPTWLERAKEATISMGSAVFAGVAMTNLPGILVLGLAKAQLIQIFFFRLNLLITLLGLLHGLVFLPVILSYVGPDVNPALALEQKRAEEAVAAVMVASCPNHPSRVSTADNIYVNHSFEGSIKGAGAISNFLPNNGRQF
Procedure: HEK-293 cells expressing human NPC1L1 were plated into 384-well black/clear plates (BD Biosciences, Bedford Mass.) for binding experiments the following day. Cell growth media (DMEM, 10% fetal calf serum, 1 mg/mL geneticin, 100 Units/mL penicillin) was aspirated. Cell growth media ([…]) containing 250 nM BODIPY-labeled glucuronidated ezetimibe was added to each well. Cell growth media ([…] containing the indicated concentration of compound was then added to the wells unlabeled glucuronidated ezetimibe […]) was used to determine nonspecific binding. The binding reaction was allowed to proceed for 4 h at 37° C. Subsequently the cell growth media was aspired and the cells washed once with PBS. The remaining fluorescent labeled glucuronidated ezetimibe bound to the cells was quantified using a FlexStation plate reader (Molecular Devices, Sunnyvale Calif.) to measure fluorescence intensity. Ki values were determined from competition binding curves (n=4 for each point) using Prism and Activity Base software.

T2 sequence (Q8NER1 whole entry, species assumed): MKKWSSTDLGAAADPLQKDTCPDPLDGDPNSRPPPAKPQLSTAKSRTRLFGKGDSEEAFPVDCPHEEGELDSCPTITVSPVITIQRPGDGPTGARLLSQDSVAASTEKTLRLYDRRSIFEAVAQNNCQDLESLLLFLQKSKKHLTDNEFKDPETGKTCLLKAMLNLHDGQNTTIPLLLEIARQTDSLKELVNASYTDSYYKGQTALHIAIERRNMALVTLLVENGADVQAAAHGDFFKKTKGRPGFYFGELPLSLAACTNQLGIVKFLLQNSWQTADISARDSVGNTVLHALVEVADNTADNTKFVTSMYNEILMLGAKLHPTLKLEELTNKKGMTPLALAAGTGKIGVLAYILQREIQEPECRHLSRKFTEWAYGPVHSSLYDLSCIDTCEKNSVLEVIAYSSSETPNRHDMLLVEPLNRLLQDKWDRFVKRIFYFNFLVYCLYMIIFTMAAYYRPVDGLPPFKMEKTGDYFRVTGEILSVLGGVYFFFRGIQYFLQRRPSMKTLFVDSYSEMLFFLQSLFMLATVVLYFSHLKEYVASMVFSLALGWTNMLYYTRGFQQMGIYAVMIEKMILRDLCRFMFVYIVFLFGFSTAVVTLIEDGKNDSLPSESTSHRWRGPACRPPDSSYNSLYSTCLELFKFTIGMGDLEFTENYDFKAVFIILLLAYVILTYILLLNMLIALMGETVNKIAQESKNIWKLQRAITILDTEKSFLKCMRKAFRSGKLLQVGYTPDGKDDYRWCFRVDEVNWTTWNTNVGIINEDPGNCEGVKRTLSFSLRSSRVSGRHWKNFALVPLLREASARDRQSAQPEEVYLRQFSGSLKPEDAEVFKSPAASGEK
T1 sequence (O95180 whole entry): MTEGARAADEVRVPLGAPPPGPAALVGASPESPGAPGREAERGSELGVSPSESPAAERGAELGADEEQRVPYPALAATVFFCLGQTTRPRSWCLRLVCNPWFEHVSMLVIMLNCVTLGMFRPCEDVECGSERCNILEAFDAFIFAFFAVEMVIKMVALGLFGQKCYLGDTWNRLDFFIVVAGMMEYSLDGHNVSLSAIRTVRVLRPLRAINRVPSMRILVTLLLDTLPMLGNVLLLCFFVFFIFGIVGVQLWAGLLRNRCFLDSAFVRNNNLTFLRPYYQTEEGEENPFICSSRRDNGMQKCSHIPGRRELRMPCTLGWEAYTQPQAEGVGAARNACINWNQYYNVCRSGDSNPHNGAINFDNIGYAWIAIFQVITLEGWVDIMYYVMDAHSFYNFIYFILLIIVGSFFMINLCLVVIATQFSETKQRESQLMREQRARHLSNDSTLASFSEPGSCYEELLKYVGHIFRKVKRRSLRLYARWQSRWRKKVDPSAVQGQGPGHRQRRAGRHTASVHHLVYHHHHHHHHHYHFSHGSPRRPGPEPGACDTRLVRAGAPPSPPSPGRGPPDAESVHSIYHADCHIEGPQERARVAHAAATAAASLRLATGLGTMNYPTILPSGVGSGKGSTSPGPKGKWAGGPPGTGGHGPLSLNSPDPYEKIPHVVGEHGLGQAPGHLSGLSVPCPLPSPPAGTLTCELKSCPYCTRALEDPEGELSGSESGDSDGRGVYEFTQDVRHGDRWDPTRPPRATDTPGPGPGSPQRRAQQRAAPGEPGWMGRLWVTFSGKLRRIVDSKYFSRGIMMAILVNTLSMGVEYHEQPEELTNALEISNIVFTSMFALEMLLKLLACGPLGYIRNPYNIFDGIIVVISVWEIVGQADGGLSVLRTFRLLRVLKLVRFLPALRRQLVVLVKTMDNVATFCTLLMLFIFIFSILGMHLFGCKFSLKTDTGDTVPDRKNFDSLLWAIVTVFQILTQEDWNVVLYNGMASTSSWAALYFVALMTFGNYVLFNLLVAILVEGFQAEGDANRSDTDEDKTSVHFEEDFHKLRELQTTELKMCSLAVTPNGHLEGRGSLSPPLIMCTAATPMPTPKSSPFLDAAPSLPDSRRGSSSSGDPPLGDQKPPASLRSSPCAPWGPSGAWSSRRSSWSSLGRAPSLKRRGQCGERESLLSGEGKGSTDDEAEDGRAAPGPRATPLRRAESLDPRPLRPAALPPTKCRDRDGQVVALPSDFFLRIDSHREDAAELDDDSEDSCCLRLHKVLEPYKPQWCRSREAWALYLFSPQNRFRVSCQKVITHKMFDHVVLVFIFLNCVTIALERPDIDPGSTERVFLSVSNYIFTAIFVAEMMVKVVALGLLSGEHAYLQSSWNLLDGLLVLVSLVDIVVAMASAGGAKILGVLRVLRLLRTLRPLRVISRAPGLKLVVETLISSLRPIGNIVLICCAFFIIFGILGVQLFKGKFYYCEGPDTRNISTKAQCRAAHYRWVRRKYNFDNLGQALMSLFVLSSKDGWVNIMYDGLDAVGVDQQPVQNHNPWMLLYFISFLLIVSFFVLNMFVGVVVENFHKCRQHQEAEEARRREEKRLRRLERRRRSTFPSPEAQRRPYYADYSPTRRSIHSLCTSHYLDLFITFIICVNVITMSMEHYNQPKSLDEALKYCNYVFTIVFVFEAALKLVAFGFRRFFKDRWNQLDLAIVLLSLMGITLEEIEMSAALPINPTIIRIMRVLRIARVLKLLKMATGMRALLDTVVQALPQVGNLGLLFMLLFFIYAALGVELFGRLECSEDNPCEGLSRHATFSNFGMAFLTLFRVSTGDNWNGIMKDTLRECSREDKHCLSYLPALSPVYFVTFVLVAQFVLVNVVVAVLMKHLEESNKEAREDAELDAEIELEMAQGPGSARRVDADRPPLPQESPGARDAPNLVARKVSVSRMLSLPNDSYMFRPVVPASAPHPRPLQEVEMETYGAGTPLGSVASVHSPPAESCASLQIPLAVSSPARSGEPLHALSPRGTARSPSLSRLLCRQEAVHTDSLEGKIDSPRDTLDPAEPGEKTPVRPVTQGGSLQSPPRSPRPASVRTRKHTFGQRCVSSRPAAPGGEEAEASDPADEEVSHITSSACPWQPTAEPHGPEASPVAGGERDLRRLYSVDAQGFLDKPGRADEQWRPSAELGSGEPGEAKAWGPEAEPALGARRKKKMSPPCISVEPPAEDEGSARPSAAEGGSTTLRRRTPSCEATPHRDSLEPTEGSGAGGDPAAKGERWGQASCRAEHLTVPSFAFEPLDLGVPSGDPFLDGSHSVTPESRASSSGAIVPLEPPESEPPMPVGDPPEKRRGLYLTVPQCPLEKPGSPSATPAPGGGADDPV

## O=C(Nc1ccc(F)c(F)c1)N1CCC2(CC1)C(=O)N(c1ccccc1)C2c1ccc(Cl)cc1 (centres unmarked)
Human Cav3.2
  IC50: 359 nM

## CC(C)N1C(=O)C2(CCN(C(=O)Nc3cc(Cl)cc(Cl)c3)CC2)C1c1ccc(Cl)cc1 (centres unmarked)
Human Cav3.2
  IC50: 212 nM

## O=C(Nc1ccc(F)c(F)c1)N1CCC2(CC1)C(=O)N(c1ccc(F)cc1)C2c1ccc(Cl)cc1 (centres unmarked)
Human Cav3.2
  IC50: 293 nM

## O=C(Nc1cccc2ccccc12)N1CCC2(CC1)C(=O)N(c1ccccc1)C2c1ccccn1 (centres unmarked)
TRPV1 [1]
  IC50: 201 nM
TRPV1 [2]
  IC50: 233 nM

## CC(C)c1ccc(NC(=O)N2CCC3(CC2)C(=O)N(c2ccccc2)C3c2ccccc2)cc1 (centres unmarked) [drawing 426]
TRPV1 [1]
  IC50: 81 nM
TRPV1 [2]
  IC50: 43 nM

## COc1ccc(Cl)cc1NC(=O)N1CCC2(CC1)C(=O)N(c1ccccc1)C2c1ccccc1 (centres unmarked)
Human NPC1L1
  Ki: 6360 nM

## CC(C)c1ccc(NC(=O)N2CCC3(CC2)C(=O)N(c2cncnc2)C3c2ccccn2)cc1 (centres unmarked)
TRPV1 [1]
  IC50: 301 nM
TRPV1 [2]
  IC50: 252 nM

## CC(C)N1C(=O)C2(CCN(C(=O)Nc3ccc(F)c(F)c3)CC2)C1c1ccc(Cl)cc1 (centres unmarked)
Human Cav3.2
  IC50: 304 nM

## CC(C)c1ccc(NC(=O)N2CCC3(CC2)C(=O)N(c2ccccc2)C3c2ccccc2)cc1 (centres unmarked) [drawing 427]
TRPV1 [1]
  IC50: 138 nM
TRPV1 [2]
  IC50: 99 nM

## CC(C)N1C(=O)C2(CCN(C(=O)Nc3ccc(Cl)cc3)CC2)C1c1ccc(Cl)cc1 (centres unmarked)
Human Cav3.2
  IC50: 423 nM

## O=C(Nc1ccc(F)c(F)c1)N1CCC2(CC1)C(=O)N(c1ccc(F)cc1)C2c1ccccn1 (centres unmarked)
Human Cav3.2
  IC50: 490 nM

## O=C(Nc1cc(F)cc(F)c1)N1CCC2(CC1)C(=O)N(c1ccc(F)cc1)C2c1ccc(Cl)cc1 (centres unmarked)
Human Cav3.2
  IC50: 504 nM

## Cc1cccc(C)c1NC(=O)N1CCC2(CC1)C(=O)N(c1ccccc1)C2c1ccccc1 (centres unmarked)
Human NPC1L1
  Ki: 8190 nM

## O=C(Nc1cccc2ccccc12)N1CCC2(CC1)C(=O)N(c1ccccc1)C2c1ccccc1 (centres unmarked)
Human NPC1L1
  Ki: 2490 nM

## O=C(Nc1ccccc1)N1CCC2(CC1)C(=O)N(c1cccc(Cl)c1)C2c1ccccn1 (centres unmarked)
Human Cav3.2
  IC50: 240 nM

## O=C(Nc1ccccc1C(F)(F)F)N1CCC2(CC1)C(=O)N(c1ccccc1)C2c1ccccc1 (centres unmarked)
Human NPC1L1
  Ki: 8130 nM

## O=C(Nc1ccc(C(F)(F)F)cc1)N1CCC2(CC1)C(=O)N(c1ccccc1)C2c1ccccc1 (centres unmarked)
TRPV1 [1]
  IC50: 171 nM

## Cc1c(Cl)cccc1NC(=O)N1CCC2(CC1)C(=O)N(c1ccccc1)C2c1ccccc1 (centres unmarked) [drawing 414]
Human Cav3.2
  IC50: 192 nM

## O=C(Nc1ccc(F)c(F)c1)N1CCC2(CC1)C(=O)N(c1cccc(Cl)c1)C2c1ccccn1 (centres unmarked)
Human Cav3.2
  IC50: 117 nM
